In paper PMC6099356 (The New Phytologist, 2018):

test system: HA‐SlCaM3/4/5; assay type: binding, tomato (Solanum lycopersicum)

| Molecule | effect on GFP-SFI5/HA-SlCaM3/4/5 association |
| --- | --- |
| NCCCCCCNS(=O)(=O)c1cccc2c(Cl)cccc12 [Peptide W7, N‐(6‐aminohexyl)‐5‐chloro‐1‐naphthalene‐sulphonamide] | significantly inhibited by the presence of CaM antagonist and Ca^2+ channel blockers |
| EDTA | significantly inhibited by the presence of CaM antagonist and Ca^2+ channel blockers |
| LaCl3 | significantly inhibited by the presence of CaM antagonist and Ca^2+ channel blockers |
